pIC50: −log10 of the molar value. Where a name gives a salt, the structure may show the parent alone.

For one assay, the target named is human ENPP2 (Homo sapiens (Human), UniProt Q13822). In words: Measurement of human ENPP2 inhibitory activity. The class given is biochemical. To be noted: 1 μM test compound; 16:0-LPC substrate, 37° C., 24 hours; read-out: ENPP2 inhibition rate(%) (1 μM). The procedure: 10 μL of a test compound solution (10% dimethyl sulfoxide) at each concentration and 40 μL of a 5 μg/mL human ENPP2 solution (buffer A: 100 mmol/L Tris-HCl (pH 9.0), 500 mmol/L NaCl, 5 mmol/L MgCl2, 0.05% Triton X-100) were mixed, 50 μL of a 2 mmol/L 16:0-lysophosphatidylcholine (LPC) solution (buffer A) was further added to react at 37° C. for 24 hours. Subsequently, to 10 μL of the reaction solution was added 90 μL of a measurement buffer (0.5 mmol/L aminoantipyrine, 0.3 mmol/L N-ethyl-N-(2-hydroxy-3-sulfopropyl)-3-methylaniline, 1 U/mL peroxidase, 3 U/mL choline oxidase, 100 mmol/L Tris-HCl (pH 8.5), 5 mmol/L CaCl2) to react at 37° C. for 20 minutes, and spectrophotometric determination was performed at 555 nm.
Using a standard curve, a choline production amount (enzyme activity) in each test compound was calculated, and the inhibitory activity rate of each test compound was calculated, wherein the enzyme activity in a positive control to which a test compound is not added, was a 0% inhibition rate, and the enzyme activity in a negative control to which a test compound and human ENPP2 are not added, were 100% inhibition. Further, concerning the present compounds shown in Table 3, an IC50 value was calculated from inhibitory activity rate at each concentration.
Take `CC(C)(CCC(=O)N1CCc2c(n(Cc3ccccc3)c3ccccc23)C1)CC(=O)O` [Example 15, 6-(9-benzyl-1,3,4,9-tetrahydro-2H-beta-carbolin-2-yl)-3,3-dimethyl-6-oxohexanoic acid]: the inhibition at 1 µM amounted to 84.1%.

In the case of `O=C(CC12CCC(C(=O)O)(CC1)CC2)N1CCc2c(n(Cc3cc(F)cc(F)c3)c3ncccc23)C1` [Example 31(128), 4-{2-[9-(3,5-difluorobenzyl)-5,6,8,9-tetrahydro-7H-pyrido[4′,3′:4,5]pyrrolo[2,3-b]pyridin-7-yl]-2-oxoethyl}bicyclo[2.2.2]octane-1-carboxylic acid], the inhibition at 1 µM worked out at 99%.

Regarding `COc1cc(CC(=O)N2CCc3c(n(Cc4cc(F)cc(F)c4)c4ncccc34)C2)ccc1C(=O)O` [Example 51(23), 4-{2-[9-(3,5-difluorobenzyl)-5,6,8,9-tetrahydro-7H-pyrido[4′,3′:4,5]pyrrolo[2,3-b]pyridin-7-yl]-2-oxoethyl}-2-methoxybenzoic acid], the inhibition at 1 µM was determined as 96.2%.

For `O=C(CC12CCC(C(=O)O)(CC1)CC2)N1CCc2c(n(Cc3cc(F)c(F)cc3F)c3ncccc23)C1` [Example 31(129), 4-{2-oxo-2-[9-(2,4,5-trifluorobenzyl)-5,6,8,9-tetrahydro-7H-pyrido[4′,3′:4,5]pyrrolo[2,3-b]pyridin-7-yl]ethyl}bicyclo[2.2.2]octane-1-carboxylic acid], the inhibition at 1 µM was found to be 99.8%.

With `CC1(C)[C@@H](CC(=O)N2CCc3c(n(Cc4ccc(F)cc4)c4ncccc34)C2)CC[C@@]1(C)C(=O)O` [Example 31(162), (1R,3R)-3-{2-[9-(4-fluorobenzyl)-5,6,8,9-tetrahydro-7H-pyrido[4′,3′:4,5]pyrrolo[2,3-b]pyridin-7-yl]-2-oxoethyl}-1,2,2-trimethylcyclopentanecarboxylic acid], the inhibition at 1 µM is 99.5%.

Turning to `O=C(CC12CCC(C(=O)O)(CC1)C2)N1CCc2c(n(Cc3cccc(F)c3)c3ncccc23)C1` [Example 31(181), 4-{2-[9-(3-fluorobenzyl)-5,6,8,9-tetrahydro-7H-pyrido[4′,3′:4,5]pyrrolo[2,3-b]pyridin-7-yl]-2-oxoethyl}bicyclo[2.2.1]heptane-1-carboxylic acid], the inhibition at 1 µM is 98.7%.

As for `O=C(CC12CCC(C(=O)O)(CC1)CC2)N1CCc2c(n(Cc3ccc(F)c(F)c3)c3ncccc23)C1` [Example 31(170), 4-{2-[9-(3,4-difluorobenzyl)-5,6,8,9-tetrahydro-7H-pyrido[4′,3′:4,5]pyrrolo[2,3-b]pyridin-7-yl]-2-oxoethyl}bicyclo[2.2.2]octane-1-carboxylic acid], the inhibition at 1 µM was found to be 98%.

`CC(C)(CCCC(=O)N1CCc2c(n(Cc3ccccc3)c3ccccc23)C1)C(=O)O` [Example 12(27), 6-(9-benzyl-1,3,4,9-tetrahydro-2H-beta-carbolin-2-yl)-2,2-dimethyl-6-oxohexanoic acid]: the inhibition at 1 µM amounted to 91.9%.

As to `O=C(O)CCCC(=O)N1CCc2c(n(CCCc3ccccc3)c3ncccc23)C1` [Example 9(26), 5-oxo-5-[9-(3-phenylpropyl)-5,6,8,9-tetrahydro-7H-pyrido[4′,3′:4,5]pyrrolo[2,3-b]pyridin-7-yl]pentanoic acid], the inhibition at 1 µM worked out at 59.3%.

For `COC(=O)CCCCC(=O)N1CCc2c(n(CCCc3ccccc3)c3ccccc23)C1` [Example 2, methyl 6-oxo-6-[9-(3-phenylpropyl)-1,3,4,9-tetrahydro-2H-beta-carbolin-2-yl]hexanoate], the inhibition at 1 µM worked out at 67.7%.

As to `O=C(O)CCCCCC(=O)N1CCc2c(n(CCCc3ccc(F)cc3)c3ccccc23)C1` [Example 3(19), 7-{9-[3-(4-fluorophenyl)propyl]-1,3,4,9-tetrahydro-2H-beta-carbolin-2-yl}-7-oxoheptanoic acid], the inhibition at 1 µM worked out at 95.1%.

Still in this assay, the particulars now being: 16:0-LPC substrate, 37° C., 24 hours.
As for `O=C(O)CCCCC(=O)N1CCc2c(n(Cc3cccc(F)c3)c3ncccc23)C1` [Example 9, 6-[9-(3-fluorobenzyl)-5,6,8,9-tetrahydro-7H-pyrido[4′,3′:4,5]pyrrolo[2,3-b]pyridin-7-yl]-6-oxohexanoic acid], the pIC50 was 7.04.

`O=C(CC12CCC(C(=O)O)(CC1)CC2)N1CCc2c(n(Cc3cccc(F)c3)c3ncccc23)C1` [Example 31(127), 4-{2-[9-(3-fluorobenzyl)-5,6,8,9-tetrahydro-7H-pyrido[4′,3′:4,5]pyrrolo[2,3-b]pyridin-7-yl]-2-oxoethyl}bicyclo[2.2.2]octane-1-carboxylic acid] showed a pIC50 of 7.96.

In turn, `CC(C)(CCCC(=O)N1CCc2c(n(Cc3ccc(F)cc3F)c3ncccc23)C1)C(=O)O` [Example 12(97), 6-[9-(2,4-difluorobenzyl)-5,6,8,9-tetrahydro-7H-pyrido[4′,3′:4,5]pyrrolo[2,3-b]pyridin-7-yl]-2,2-dimethyl-6-oxohexanoic acid] showed a pIC50 of 8.17.

Regarding `O=C(O)C1CCCN(CC(=O)N2CCc3c(n(Cc4cccc(F)c4)c4ncccc34)C2)C1` (stereo not drawn) [Example 35(2), 1-{2-[9-(3-fluorobenzyl)-5,6,8,9-tetrahydro-7H-pyrido[4′,3′:4,5]pyrrolo[2,3-b]pyridin-7-yl]-2-oxoethyl}-3-piperidinecarboxylic acid], the negative-log IC50 (pIC50) is 6.96. This pIC50 is 1.21 log units lower than that of the compound before.

`CC(C)(CNCC(=O)N1CCc2c(n(Cc3cccc(F)c3)c3ncccc23)C1)C(=O)O` [Example 20, 3-({2-[9-(3-fluorobenzyl)-5,6,8,9-tetrahydro-7H-pyrido[4′,3′:4,5]pyrrolo[2,3-b]pyridin-7-yl]-2-oxoethyl}amino)-2,2-dimethylpropanoic acid hydrochloride] had a negative-log IC50 (pIC50) of 7.08.

Consider `O=C(CC12CCC(C(=O)O)(CC1)CC2)N1CCc2c(n(Cc3ccc(Cl)cc3)c3ncccc23)C1` [Example 31(140), 4-{2-[9-(4-chlorobenzyl)-5,6,8,9-tetrahydro-7H-pyrido[4′,3′:4,5]pyrrolo[2,3-b]pyridin-7-yl]-2-oxoethyl}bicyclo[2.2.2]octane-1-carboxylic acid], for which the negative logarithm of the IC50 (pIC50) is 7.96.

`CC1(C)[C@@H](CC(=O)N2CCc3c(n(Cc4ccc(F)c(Cl)c4)c4ncccc34)C2)CC[C@@]1(C)C(=O)O` [Example 31(169), (1R,3R)-3-{2-[9-(3-chloro-4-fluorobenzyl)-5,6,8,9-tetrahydro-7H-pyrido[4′,3′:4,5]pyrrolo[2,3-b]pyridin-7-yl]-2-oxoethyl}-1,2,2-trimethylcyclopentanecarboxylic acid] had a negative-log IC50 (pIC50) of 7.89.

Regarding `C[C@]1(C(=O)O)CC[C@H](CC(=O)N2CCc3c(n(Cc4ccc(Cl)cc4)c4ncccc34)C2)CC1` [Example 48(9), trans-4-{2-[9-(4-chlorobenzyl)-5,6,8,9-tetrahydro-7H-pyrido[4′,3′:4,5]pyrrolo[2,3-b]pyridin-7-yl]-2-oxoethyl}-1-methylcyclohexanecarboxylic acid], the negative-log IC50 (pIC50) was 7.60.

For the compound `Cc1cc(CC(=O)N2CCc3c(n(Cc4csc(Cl)c4)c4ncccc34)C2)ccc1C(=O)O` [Example 51(48), 4-(2-{9-[(5-chloro-3-thienyl)methyl]-5,6,8,9-tetrahydro-7H-pyrido[4′,3′:4,5]pyrrolo[2,3-b]pyridin-7-yl}-2-oxoethyl)-2-methylbenzoic acid], the pIC50 is 8.11.

Consider `C[C@@H]1CN(CC(=O)N2CCc3c(n(Cc4ccc(Cl)s4)c4ccccc34)C2)C[C@H](C)N1CC(=O)O` [Example 35(122), rel-[(2R,6S)-4-(2-{9-[(5-chloro-2-thienyl)methyl]-1,3,4,9-tetrahydro-2H-beta-carbolin-2-yl}-2-oxoethyl)-2,6-dimethyl-1-piperazinyl]acetic acid dihydrochloride], for which the pIC50 was 7.46.

By inhibition is commonly meant the drop in the measured response relative to a control, in per cent. Broadly, the pIC50 is the IC50 on a negative log10 scale, so that one unit is a factor of ten. Read a high pIC50 as a low IC50.

The values are drawn from patent US9006246B2, “Tetrahydrocarboline derivative” (Ono Pharmaceutical Co., Ltd., priority 2010, dated 2015).
